Among the data in US7550469B2, “Heterocyclic amide derivatives and their use as dopamine D3 receptor ligands” (Aventis Pharmaceuticals Inc., priority 2001, dated 2009) are Ki values, retold here.

Each structure is given as a SMILES string.

In one assay the target is T1, cloned human dopamine D3 receptors (Homo sapiens, UniProt P35462).
T1 construct: expressed in transfected cells; membrane homogenate
T1 sequence (P35462 whole entry): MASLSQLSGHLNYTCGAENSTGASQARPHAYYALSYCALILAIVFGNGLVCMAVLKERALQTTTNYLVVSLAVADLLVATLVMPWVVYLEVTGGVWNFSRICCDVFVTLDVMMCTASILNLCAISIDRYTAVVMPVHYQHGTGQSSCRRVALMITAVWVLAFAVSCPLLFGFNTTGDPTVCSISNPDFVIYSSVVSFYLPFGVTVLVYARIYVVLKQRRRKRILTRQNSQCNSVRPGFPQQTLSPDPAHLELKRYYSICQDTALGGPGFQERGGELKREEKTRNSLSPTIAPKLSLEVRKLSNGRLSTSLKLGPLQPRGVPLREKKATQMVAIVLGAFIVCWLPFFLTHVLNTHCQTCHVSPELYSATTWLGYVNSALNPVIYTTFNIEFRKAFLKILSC
Briefly: [N-Methyl-3H]Spiroperidol binding to cloned human dopamine D3 receptors (Protocol 1). The settings on record: Table 2; read-out: D3K1. The procedure, abridged:
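Membranes from CHO cells stably expressing cloned human D3 receptor were used for [N-methyl-3H]spiroperidol (60-90 Ci/mmol) binding. Assay buffer was 0.05 M Tris HCl pH 7.7 with 120 mM NaCl, 5 mM KCl, 2 mM CaCl2 and 1 mM MgCl2, optionally 0.1% ascorbic acid; total ligand concentration calculated from added CPM.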
For `O=C(NC(CO)CCCN1CCN(c2csc3cc(C(F)(F)F)ccc23)CC1)c1cc2ccc(Cl)cc2s1` (centres unmarked) [compound 815686], the Ki worked out at 275 nM.

For `O=C(NCCCCN1CCN(c2c(-c3ccccc3)sc3cc(F)ccc23)CC1)c1cccs1` [compound 815879], the Ki was found to be 292 nM. For the molecule `O=C(NC(CO)CCCN1CCN(c2csc3cc(C(F)(F)F)ccc23)CC1)c1ccc(Cl)cc1` (centres unmarked) [compound 815690], the Ki was found to be 245 nM.

As to `O=C(NCC(CO)CCN1CCN(c2csc3cc(C(F)(F)F)ccc23)CC1)c1ccc2ccccc2c1` (centres unmarked) [818929ES], the Ki worked out at 201 nM. On the same count and under the same terms, the value for `COc1ccc2cc(C(=O)NCCCCN3CCCN(c4csc5cc(F)ccc45)CC3)oc2c1` [compound 827122] was 6.06 nM.

The same assay, now with this note: read-out: D3K1.
Consider `CCCCCOc1ccc(C(=O)NCCCCN2CCN(c3csc4cc(C(F)(F)F)ccc34)CC2)cc1` [compound 815552], for which the Ki came out at 140 nM.

Consider `O=C(NCCCCCN1CCN(c2csc3cc(C(F)(F)F)ccc23)CC1)c1n[nH]c2ccccc12` [compound 826801], for which the Ki came out at 49.8 nM. The same measure, in the same setting: the value for `O=C(NCCCCCN1CCN(c2csc3cc(C(F)(F)F)ccc23)CC1)c1cccs1` [compound 826764] was 7.8 nM; that for `O=C(NC(CO)CCCN1CCN(c2csc3cc(C(F)(F)F)ccc23)CC1)c1cc2ccc(Cl)cc2s1` (centres unmarked) [compound 815686] was 275 nM.

In the case of `O=C(NCCCCN1CCN(c2csc3cc(C(F)(F)F)ccc23)CC1)C1CCCC1` [compound 815559], the Ki amounted to 13.5 nM. On the same count and under the same terms, the value for `O=C(NC(CO)CCCN1CCN(c2csc3cc(C(F)(F)F)ccc23)CC1)c1ccc(Cl)cc1` (centres unmarked) [compound 815690] was 245 nM; that for `O=C(NC/C=C/CN1CCN(c2csc3cc(C(F)(F)F)ccc23)CC1)C1CCCCC1` [compound 827717] was 9.5 nM. On the same count and under the same terms, the value for `O=C(NC/C=C\CN1CCN(c2csc3cc(C(F)(F)F)ccc23)CC1)c1cc(F)cc(F)c1` [compound 826338] was 93 nM; that for `O=C(NC/C=C\CN1CCN(c2csc3cc(C(F)(F)F)ccc23)CC1)C1CCCCC1` [compound 826339] was 24 nM. As to `CC1(C)C(CNC(=O)c2ccc(F)cc2)C1CN1CCN(c2csc3cc(C(F)(F)F)ccc23)CC1` (centres unmarked) [compound 826273], the Ki came out at 51 nM.

Take `CCOc1ccc(C(=O)NCCCCN2CCN(c3c(Cl)sc4cc(F)ccc34)CC2)cc1` [compound 815052]: the Ki was found to be 5.4 nM. Same read-out and setting: under `O=C(NCCCCN1CCN(c2c(Cl)sc3cc(F)ccc23)CC1)c1ccc(-c2ccccc2)cc1` [compound 815059] stands 13.8 nM. On to `COc1ccccc1C(=O)NCCCCN1CCN(c2c(Cl)sc3cc(F)ccc23)CC1` [compound 815066], for which the Ki came to 28.7 nM. The same measure, in the same setting: the value for `O=C(NCCCCCN1CCN(c2csc3cc(C(F)(F)F)ccc23)CC1)c1cccc(Cl)c1` [compound 826765] was 23 nM.

On to `O=C(NCCCCN1CCN(c2c(Cl)sc3cc(F)ccc23)CC1)c1ccc2c(c1)OCO2` [compound 815055], for which the Ki is 3.5 nM. On the same count and under the same terms, the value for `O=C(NCCCCCN1CCN(c2csc3cc(C(F)(F)F)ccc23)CC1)c1c[nH]c2ccccc12` [compound 826797] was 36.4 nM; that for `O=C(NC/C=C/CN1CCN(c2csc3cc(C(F)(F)F)ccc23)CC1)c1cccnc1` [compound 827714] was 43 nM.

Staying with this assay, now noted: the 13th table, unit inferred; read-out: D3Ki.
For `O=C(NCCCCN1CCCN(c2csc3cc(F)ccc23)CC1)c1cccnc1Cl` [compound 822201], the Ki was found to be 15 nM. The same measure, in the same setting: the value for `O=C(NCCCCN1CCC(c2noc3ccsc23)CC1)c1ccc2ccccc2c1` [compound 81514] was 191 nM; that for `O=C(NCCCCN1CCCN(c2csc3cc(F)ccc23)CC1)c1cc(Cl)ccc1[N+](=O)[O-]` [S982540] was 1.2 nM; that for `O=C(NCCCCN1CCCN(c2csc3cc(F)ccc23)CC1)c1cccc2c1-c1ccccc1C2=O` [S982536] was 1.4 nM. Still for that read-out and setting: under `O=C(NCCCCN1CCCN(c2csc3cc(F)ccc23)CC1)c1ccsc1` [S977829] stands 4.18 nM; under `O=C(NCCCCCN1CCCN(c2csc3cc(F)ccc23)CC1)c1c[nH]c2ccccc12` [S984507], 62 nM; under `COc1cccc(C(=O)NCCCCN2CCCN(c3csc4cc(C(F)(F)F)ccc34)CC2)c1` [S980640], 43 nM. Still for that read-out and setting: the value for `Cc1oc(-c2ccc(Cl)cc2)cc1C(=O)NCCCCN1CCCN(c2csc3cc(F)ccc23)CC1` [S981840] was 3.4 nM.

Regarding `O=C(NCCCCCN1CCCN(c2csc3cc(F)ccc23)CC1)c1cc2ccccc2s1` [S984494], the Ki came to 11.6 nM. On the same count and under the same terms, under `O=C(NCCCCCN1CCCN(c2csc3cc(F)ccc23)CC1)c1ccc2cc[nH]c2c1` [S984510] stands 10.1 nM. `O=C(NCCCCN1CCCN(c2csc3cc(C(F)(F)F)ccc23)CC1)c1cccc2ccccc12` [S980631]: the Ki was determined as 100 nM.

With `O=C(NCCCCN1CCCN(c2csc3cc(C(F)(F)F)ccc23)CC1)c1ccc2ccccc2c1` [S980632], the Ki turned out to be 23 nM.

The assay is the same for the next values; noted with them: the 14th table; read-out: D3 Ki.
`O=C(NCCCCCN1CCN(c2csc3cc(C(F)(F)F)ccc23)CC1)c1n[nH]c2ccccc12` [compound 826801]: the Ki came to 49.8 nM. Still for that read-out and setting: the value for `O=C(NCCCCCN1CCN(c2csc3cc(C(F)(F)F)ccc23)CC1)c1cccs1` [compound 826764] was 7.8 nM.

On to `O=C(NC(CO)CCCN1CCN(c2csc3cc(C(F)(F)F)ccc23)CC1)c1cc2ccc(Cl)cc2s1` (centres unmarked) [compound 815686], for which the Ki was 275 nM. The same measure, in the same setting: under `O=C(NCCCCCN1CCN(c2csc3cc(F)ccc23)CC1)c1c[nH]c2ccccc12` [compound 826787] stands 1.19 nM; under `O=C(NC(CO)CCCN1CCN(c2csc3cc(C(F)(F)F)ccc23)CC1)c1ccc(Cl)cc1` (centres unmarked) [compound 815690], 245 nM. Still for that read-out and setting: the value for `O=C(NCCCCCN1CCN(c2csc3cc(C(F)(F)F)ccc23)CC1)c1cccc(Cl)c1` [compound 826765] was 23 nM; that for `COc1cc(OC)cc(C(=O)NCCCCCN2CCN(c3csc4cc(F)ccc34)CC2)c1` [compound 826776] was 1.27 nM. Same read-out and setting: the value for `O=C(NCCCCCN1CCN(c2csc3cc(C(F)(F)F)ccc23)CC1)c1c[nH]c2ccccc12` [compound 826797] was 36.4 nM; that for `Cn1c(C(=O)NCCCCCN2CCN(c3csc4cc(F)ccc34)CC2)cc2ccccc21` [compound 826786] was 1.09 nM.

The same assay, now with this note: the 15th table; read-out: D3 Ki.
Regarding `O=C(Cc1cccs1)NCCCCN1C2CCC1CC(c1noc3ccccc13)C2` (centres unmarked) [compound 816521], the Ki is 328 nM.

For `O=C(NCCCCN1C2CCC1CC(c1noc3ccccc13)C2)c1ccc(C(F)(F)F)cc1` (centres unmarked) [compound 816530], the Ki came to 110 nM.

Still in this assay, the particulars now being: the 16th table; read-out: D3 Ki.
Regarding `COc1ccc2cc(C(=O)NCCCCN3CCCN(c4csc5cc(F)ccc45)CC3)oc2c1` [compound 827122], the Ki turned out to be 6.06 nM.

The assay is the same for the next values; noted with them: the 17th table; read-out: D3 Ki.
Regarding `COc1ccc(C(=O)NCC2CC2CN2CCCN(c3csc4cc(F)ccc34)CC2)cc1` (racemic) [compound 830405], the Ki is 1.65 nM. For the molecule `CCCCc1ccc(C(=O)N(Cc2ccccc2)CC2CC2CN2CCCN(c3csc4cc(F)ccc34)CC2)cc1` (racemic) [compound 830395], the Ki was determined as 27.6 nM. The same measure, in the same setting: the value for `O=C(c1cc2ccccc2s1)N(Cc1ccccc1)CC1CC1CN1CCCN(c2csc3cc(F)ccc23)CC1` (racemic) [compound 830398] was 15.9 nM.

Staying with this assay, now noted: the 18th table; read-out: D3 Ki.
As to `Cc1ccccc1C(=O)NCc1sccc1CN1CCN(c2csc3cc(F)ccc23)CC1` [compound 826306], the Ki amounted to 89 nM. With `O=C(NCc1sccc1CN1CCN(c2csc3cc(F)ccc23)CC1)c1ccc(-c2ccccc2)cc1` [compound 826308], the Ki was determined as 206 nM.

As for `O=C(NCc1sccc1CN1CCN(c2csc3cc(F)ccc23)CC1)c1csnn1` [compound 826317], the Ki worked out at 48 nM. Consider `COc1cccc(C(=O)NCc2sccc2CN2CCN(c3csc4cc(F)ccc34)CC2)c1` [compound 826307], for which the Ki came to 47 nM.

For the molecule `O=C(NCc1sccc1CN1CCN(c2csc3cc(F)ccc23)CC1)c1cccc2[nH]ccc12` [compound 826326], the Ki amounted to 71 nM.

Staying with this assay, now noted: the 19th table; read-out: D3 Ki.
`O=C(Nc1cccc(CN2CCN(c3csc4cc(F)ccc34)CC2)c1)c1ccncc1` [compound 822185]: the Ki is 50.7 nM.

Still in this assay, the particulars now being: the 20th table; read-out: D3 Ki.
Consider `COc1ccccc1C(=O)NCc1ccoc1CN1CCN(c2csc3cc(F)ccc23)CC1` [compound 825842], for which the Ki came to 532 nM.

The assay is the same for the next values; noted with them: the 21st table; read-out: D3 Ki.
Regarding `C[C@@H]1CN(c2csc3cc(C(F)(F)F)ccc23)C[C@H](C)N1CCCCNC(=O)c1ccc2ccccc2c1` [compound 827042], the Ki amounted to 112 nM.

Regarding `C[C@@H]1CN(c2csc3cc(C(F)(F)F)ccc23)C[C@H](C)N1CCCCNC(=O)c1cccnc1Cl` [compound 826938], the Ki came to 175 nM. For the molecule `C[C@@H]1CN(c2csc3cc(C(F)(F)F)ccc23)C[C@H](C)N1CCCCNC(=O)c1cccc(F)c1` [compound 827044], the Ki was 186 nM. Same read-out and setting: the value for `C[C@@H]1CN(c2csc3cc(C(F)(F)F)ccc23)C[C@H](C)N1CCCCNC(=O)c1ccc(F)cc1` [compound 826929] was 217 nM. Same read-out and setting: under `C[C@@H]1CN(c2csc3cc(C(F)(F)F)ccc23)C[C@H](C)N1CCCCNC(=O)c1n[nH]c2ccccc12` [compound 826956] stands 190 nM. Still for that read-out and setting: under `C[C@@H]1CN(c2csc3cc(C(F)(F)F)ccc23)C[C@H](C)N1CCCCNC(=O)c1cccc(C(F)(F)F)c1` [compound 827043] stands 322 nM. As to `C[C@@H]1CN(c2csc3cc(F)ccc23)C[C@H](C)N1CCCCNC(=O)c1ccc(C(C)(C)C)cc1` [compound 826944], the Ki was found to be 128 nM. In the case of `C[C@@H]1CN(c2csc3cc(F)ccc23)C[C@H](C)N1CCCCNC(=O)c1ccc2ccccc2c1` [compound 827051], the Ki turned out to be 29.5 nM.

Staying with this assay, now noted: the 22nd table; read-out: D3 Ki.
In the case of `Cc1ccc(C(=O)NCCCCN2CCN(c3nn(C(=O)c4ccc(C)cc4)c4ccsc34)CC2)cc1` [compound 825147], the Ki came to 62.7 nM.

Turning to `O=C(NCCCCN1CCN(c2noc3ccsc23)CC1)c1cc2ccccc2[nH]1` [compound 829682], the Ki was found to be 18.9 nM.

Regarding `O=C(NCCCCN1CCN(c2nn(C(=O)c3ccc(F)cc3)c3ccsc23)CC1)c1ccc(F)cc1` [compound 825148], the Ki came to 36.4 nM.

The same assay, now with this note: the 23rd table; read-out: D3 Ki.
In the case of `Clc1ccc(CN2CCN(CC3CC3CN3CCC(c4noc5ccsc45)CC3)CC2)cc1Cl` (racemic) [832297GW], the Ki came out at 393 nM. The same measure, in the same setting: the value for `COc1cccc2c(C3CCN(C[C@@H]4C[C@H]4CN[C@H]4CC[C@H](C)CC4)CC3)noc12` [compound 833329] was 31.9 nM.

The assay is the same for the next values; noted with them: the 24th table; read-out: D3 Ki.
For the molecule `COc1ccc(S(=O)(=O)NCC2CC2CN2CCN(c3csc4cc(C(F)(F)F)ccc34)CC2)cc1` (centres unmarked) [compound 831500], the Ki is 28.1 nM. Take `CC(C)(C)c1ccc(S(=O)(=O)NCC2CC2CN2CCN(c3csc4cc(C(F)(F)F)ccc34)CC2)cc1` (racemic) [compound 831591]: the Ki came out at 93.3 nM.
